Data reported in patent US9663508B2, “Biaryl acyl-sulfonamide compounds as sodium channel inhibitors” (AMGEN INC., priority 2013, dated 2017).
Where two headings read alike, the source gives them in different places.

Assays:
human Nav1.7 = human Nav1.7 (Homo sapiens (Human), UniProt Q15858); test: Nav 1.7 in vitro PatchXpress (PX) assay; type: cell-based
human Nav 1.5 = human Nav 1.5 (Homo sapiens (Human), UniProt Q14524); test: Nav 1.5 IonWorks Quattro (IWQ) in vitro assay; type: cell-based
[1] = in-vitro Nav 1.5 IWQ data, read-out: NAV 1.5 IWQ (IC50)

human Nav1.7, sequence (Q15858 whole entry): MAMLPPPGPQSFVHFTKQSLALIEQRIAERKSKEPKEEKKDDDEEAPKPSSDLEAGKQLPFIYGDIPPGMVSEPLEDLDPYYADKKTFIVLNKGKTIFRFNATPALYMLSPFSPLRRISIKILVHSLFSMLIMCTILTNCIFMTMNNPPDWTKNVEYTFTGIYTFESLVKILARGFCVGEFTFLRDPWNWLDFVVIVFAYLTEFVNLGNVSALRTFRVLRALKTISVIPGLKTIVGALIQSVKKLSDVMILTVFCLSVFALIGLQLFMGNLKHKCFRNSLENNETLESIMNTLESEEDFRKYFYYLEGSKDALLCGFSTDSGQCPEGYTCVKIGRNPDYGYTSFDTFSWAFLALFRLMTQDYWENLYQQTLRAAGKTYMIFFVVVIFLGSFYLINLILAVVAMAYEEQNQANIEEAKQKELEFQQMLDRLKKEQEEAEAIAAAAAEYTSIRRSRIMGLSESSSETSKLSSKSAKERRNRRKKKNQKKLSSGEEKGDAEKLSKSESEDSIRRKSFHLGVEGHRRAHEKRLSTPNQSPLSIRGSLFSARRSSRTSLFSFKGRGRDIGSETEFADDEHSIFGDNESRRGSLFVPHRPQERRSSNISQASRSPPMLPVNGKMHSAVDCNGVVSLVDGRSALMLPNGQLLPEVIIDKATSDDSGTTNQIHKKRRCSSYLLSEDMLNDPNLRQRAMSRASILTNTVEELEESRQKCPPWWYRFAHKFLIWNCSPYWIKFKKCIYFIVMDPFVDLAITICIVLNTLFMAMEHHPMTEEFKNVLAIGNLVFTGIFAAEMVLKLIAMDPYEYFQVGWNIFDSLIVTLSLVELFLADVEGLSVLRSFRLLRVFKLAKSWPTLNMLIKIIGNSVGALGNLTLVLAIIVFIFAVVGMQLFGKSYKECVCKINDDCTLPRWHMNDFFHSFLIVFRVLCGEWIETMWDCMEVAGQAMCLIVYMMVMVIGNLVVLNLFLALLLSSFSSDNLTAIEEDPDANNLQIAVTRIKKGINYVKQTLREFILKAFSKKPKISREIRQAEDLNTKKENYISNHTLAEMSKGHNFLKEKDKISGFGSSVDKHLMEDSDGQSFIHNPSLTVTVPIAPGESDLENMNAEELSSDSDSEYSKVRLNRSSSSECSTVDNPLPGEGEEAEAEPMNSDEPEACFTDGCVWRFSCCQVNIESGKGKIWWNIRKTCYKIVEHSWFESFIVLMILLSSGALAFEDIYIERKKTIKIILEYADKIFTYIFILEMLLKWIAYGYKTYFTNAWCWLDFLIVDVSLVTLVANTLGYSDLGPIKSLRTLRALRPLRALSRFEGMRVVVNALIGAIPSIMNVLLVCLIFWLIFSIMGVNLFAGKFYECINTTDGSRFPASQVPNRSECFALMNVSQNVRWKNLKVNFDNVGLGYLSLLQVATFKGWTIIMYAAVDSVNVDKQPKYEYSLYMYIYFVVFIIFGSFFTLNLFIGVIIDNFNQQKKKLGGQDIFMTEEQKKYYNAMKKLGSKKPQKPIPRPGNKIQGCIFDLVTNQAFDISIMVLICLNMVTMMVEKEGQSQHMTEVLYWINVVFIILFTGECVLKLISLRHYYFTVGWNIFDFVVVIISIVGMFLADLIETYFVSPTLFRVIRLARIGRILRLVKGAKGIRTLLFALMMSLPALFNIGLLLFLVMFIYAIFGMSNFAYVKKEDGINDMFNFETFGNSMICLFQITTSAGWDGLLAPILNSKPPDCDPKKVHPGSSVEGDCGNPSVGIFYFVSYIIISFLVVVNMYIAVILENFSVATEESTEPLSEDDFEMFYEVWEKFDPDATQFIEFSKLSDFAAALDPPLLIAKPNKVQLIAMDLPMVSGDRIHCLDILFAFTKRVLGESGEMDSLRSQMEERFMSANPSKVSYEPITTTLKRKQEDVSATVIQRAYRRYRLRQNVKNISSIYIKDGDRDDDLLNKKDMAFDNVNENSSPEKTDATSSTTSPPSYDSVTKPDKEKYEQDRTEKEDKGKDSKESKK
human Nav 1.5, sequence (Q14524 whole entry): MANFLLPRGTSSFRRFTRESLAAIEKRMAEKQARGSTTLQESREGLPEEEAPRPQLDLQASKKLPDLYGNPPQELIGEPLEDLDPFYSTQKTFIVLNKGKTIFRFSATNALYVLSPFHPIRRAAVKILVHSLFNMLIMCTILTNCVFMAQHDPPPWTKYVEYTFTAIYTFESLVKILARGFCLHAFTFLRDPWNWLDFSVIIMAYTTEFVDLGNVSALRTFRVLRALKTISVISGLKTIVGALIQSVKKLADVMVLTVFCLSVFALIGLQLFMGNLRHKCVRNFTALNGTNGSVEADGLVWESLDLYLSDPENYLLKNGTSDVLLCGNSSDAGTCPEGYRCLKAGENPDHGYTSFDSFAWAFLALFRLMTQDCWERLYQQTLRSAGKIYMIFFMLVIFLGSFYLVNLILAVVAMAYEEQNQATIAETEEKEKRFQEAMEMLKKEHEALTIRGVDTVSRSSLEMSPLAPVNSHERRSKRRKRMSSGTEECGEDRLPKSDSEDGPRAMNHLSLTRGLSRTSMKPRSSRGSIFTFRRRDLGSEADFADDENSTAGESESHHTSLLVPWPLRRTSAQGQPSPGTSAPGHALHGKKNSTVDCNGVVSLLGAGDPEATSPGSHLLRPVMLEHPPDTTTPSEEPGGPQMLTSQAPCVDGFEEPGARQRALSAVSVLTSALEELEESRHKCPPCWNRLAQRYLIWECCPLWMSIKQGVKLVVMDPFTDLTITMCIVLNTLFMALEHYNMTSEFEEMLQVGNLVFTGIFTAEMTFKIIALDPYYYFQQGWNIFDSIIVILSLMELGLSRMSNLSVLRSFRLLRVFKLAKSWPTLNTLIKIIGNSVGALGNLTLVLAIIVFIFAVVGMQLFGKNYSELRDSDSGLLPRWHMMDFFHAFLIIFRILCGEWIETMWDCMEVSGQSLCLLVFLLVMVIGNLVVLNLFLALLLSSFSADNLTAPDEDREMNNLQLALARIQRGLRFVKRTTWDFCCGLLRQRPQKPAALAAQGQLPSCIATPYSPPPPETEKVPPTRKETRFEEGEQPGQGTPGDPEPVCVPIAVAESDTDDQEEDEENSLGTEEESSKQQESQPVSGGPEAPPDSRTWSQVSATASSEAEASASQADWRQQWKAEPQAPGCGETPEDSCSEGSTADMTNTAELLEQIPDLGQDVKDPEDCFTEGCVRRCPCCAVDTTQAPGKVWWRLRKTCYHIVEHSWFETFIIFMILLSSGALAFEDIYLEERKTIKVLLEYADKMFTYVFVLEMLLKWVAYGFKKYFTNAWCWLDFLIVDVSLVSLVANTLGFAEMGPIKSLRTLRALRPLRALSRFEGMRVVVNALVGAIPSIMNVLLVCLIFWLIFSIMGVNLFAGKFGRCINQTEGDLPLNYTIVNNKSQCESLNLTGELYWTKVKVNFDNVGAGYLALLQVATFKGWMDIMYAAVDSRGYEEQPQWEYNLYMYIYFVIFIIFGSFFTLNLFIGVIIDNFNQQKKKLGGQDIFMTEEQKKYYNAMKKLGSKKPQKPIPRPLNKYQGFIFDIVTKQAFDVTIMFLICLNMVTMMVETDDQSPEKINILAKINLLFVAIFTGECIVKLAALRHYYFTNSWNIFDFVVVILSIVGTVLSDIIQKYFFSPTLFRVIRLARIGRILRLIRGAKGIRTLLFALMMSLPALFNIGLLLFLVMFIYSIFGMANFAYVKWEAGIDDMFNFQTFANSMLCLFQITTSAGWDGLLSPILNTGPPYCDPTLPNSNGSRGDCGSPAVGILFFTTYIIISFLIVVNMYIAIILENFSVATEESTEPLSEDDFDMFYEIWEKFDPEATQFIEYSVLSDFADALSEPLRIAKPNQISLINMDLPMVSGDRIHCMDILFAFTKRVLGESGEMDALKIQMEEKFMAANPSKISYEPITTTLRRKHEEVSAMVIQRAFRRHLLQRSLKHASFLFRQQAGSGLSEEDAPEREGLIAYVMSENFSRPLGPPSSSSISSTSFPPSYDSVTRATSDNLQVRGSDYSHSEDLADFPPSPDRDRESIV

IC50 (human Nav1.7)	IC50 (human Nav1.7; in-vitro Nav 1.7 PX data)	SMILES	IC50 (human Nav 1.5; read-out: NAV 1.5 IWQ IC50)	IC50 (human Nav 1.5; [1])	IC50 (human Nav 1.5)
48.1 nM		Cc1cc(C(=O)NS(C)(=O)=O)c(F)cc1-c1cnc(Oc2c(C)ccc3ccccc23)c(Cl)c1 [Example 608, 4-(5-chloro-6-((2-methyl-1-naphthalenyl)oxy)-3-pyridinyl)-2-fluoro-5-methyl-N-(methylsulfonyl)benzamide]	> 3000 nM		
	34.9 nM	COc1cc(C(=O)NS(C)(=O)=O)c(F)cc1-c1cnc(OCc2nc3ccccc3s2)c(Cl)c1 [Example 709, 4-(6-(1,3-benzothiazol-2-ylmethoxy)-5-chloro-3-pyridinyl)-2-fluoro-5-methoxy-N-(methylsulfonyl)benzamide]		> 3000 nM	
	23.1 nM	Cc1cc(C(=O)NS(=O)(=O)c2nccs2)c(F)cc1-c1cnc(Oc2c(C)cc(Cl)cc2Cl)c(Cl)c1 [Example 799, 4-(5-chloro-6-(2,4-dichloro-6-methylphenoxy)-3-pyridinyl)-2-fluoro-5-methyl-N-(1,3-thiazol-2-ylsulfonyl)benzamide]		669 nM	
	32.6 nM	COc1cc(C(=O)NS(C)(=O)=O)c(F)cc1-c1cnc(OCc2nc3ccccc3s2)c(Cl)c1 [Example 708, 4-(6-(1,3-benzothiazol-2-ylmethoxy)-5-chloro-3-pyridinyl)-2-fluoro-5-methoxy-N-(methylsulfonyl)benzamide]		> 3000 nM	
93.3 nM		Cc1cc(C(=O)NS(C)(=O)=O)c(F)cc1-c1cnc(Oc2cc(Cl)ccc2F)c(Cl)c1 [Example 617, 4-(5-chloro-6-(5-chloro-2-fluorophenoxy)-3-pyridinyl)-2-fluoro-5-methyl-N-(methylsulfonyl)benzamide]	> 3000 nM		
54 nM		CC[C@@H](Oc1ncc(-c2cc(F)c(C(=O)NS(C)(=O)=O)cc2C)cc1Cl)c1ccc(F)c(C)c1 [Example 675, 4-(5-chloro-6-(((1R)-1-(4-fluoro-3-methylphenyl)propyl)oxy)-3-pyridinyl)-2-fluoro-5-methyl-N-(methylsulfonyl)benzamide]	> 10000 nM		
77.4 nM		Cc1cc(C(=O)NS(C)(=O)=O)c(F)cc1-c1cnc(Oc2ccc(Br)cc2)c(Cl)c1 [Example 609, 4-(6-(4-bromophenoxy)-5-chloro-3-pyridinyl)-2-fluoro-5-methyl-N-(methylsulfonyl)benzamide]	> 3000 nM		
	91.6 nM	COc1cc(C(=O)NS(C)(=O)=O)ccc1-c1cc(Cl)nc(Oc2cc(Cl)cc(Cl)c2)c1 [Example 803, 4-(2-chloro-6-(3,5-dichlorophenoxy)-4-pyridinyl)-3-methoxy-N-(methylsulfonyl)benzamide]		> 3000 nM	
48.5 nM		Cc1ccc(Oc2ncc(-c3cc(F)c(C(=O)NS(C)(=O)=O)cc3C)cc2Cl)cc1F [Example 623, 4-(5-chloro-6-(3-fluoro-4-methylphenoxy)-3-pyridinyl)-2-fluoro-5-methyl-N-(methylsulfonyl)benzamide]			4840 nM
80.9 nM		Cc1cc(C(=O)NS(C)(=O)=O)c(F)cc1-c1cnc(O[C@H]2C[C@H]3CC[C@@H]2C3)c(Cl)c1 [Example 635, 4-(6-((1R,2S,4S)-bicyclo[2.2.1]hept-2-yloxy)-5-chloro-3-pyridinyl)-2-fluoro-5-methyl-N-(methylsulfonyl)benzamide]	> 3000 nM		
70.6 nM		COc1cc(C(=O)NS(C)(=O)=O)c(F)cc1-c1cnc(Oc2ccc(F)c(F)c2F)c(Cl)c1 [Example 701, 4-(5-chloro-6-(2,3,4-trifluorophenoxy)-3-pyridinyl)-2-fluoro-5-methoxy-N-(methylsulfonyl)benzamide]	> 3000 nM		

SMILES	IC50 (human Nav1.7)	IC50 (human Nav1.7; in-vitro Nav 1.7 PX data)	IC50 (human Nav 1.5; read-out: NAV 1.5 IWQ IC50)	IC50 (human Nav 1.5; [1])	IC50 (human Nav 1.5)
CC[C@@H](Oc1ncc(-c2cc(F)c(C(=O)NS(C)(=O)=O)cc2C)cc1Cl)c1ccc(Cl)cc1 [Example 640, 4-(5-chloro-6-(((1R)-1-(4-chlorophenyl)propyl)oxy)-3-pyridinyl)-2-fluoro-5-methyl-N-(methylsulfonyl)benzamide, 4-(5-chloro-6-(((1S)-1-(4-chlorophenyl)propyl)oxy)-3-pyridinyl)-2-fluoro-5-methyl-N-(methylsulfonyl)benzamide]	90.8 nM		> 3000 nM		
CC[C@H](Cc1ccccc1)Oc1ncc(-c2cc(F)c(C(=O)NS(C)(=O)=O)cc2Cl)cc1Cl [Example 593, 4-(6-(((1R)-1-benzylpropyl)oxy)-5-chloro-3-pyridinyl)-5-chloro-2-fluoro-N-(methylsulfonyl)benzamide, 4-(6-(((1S)-1-benzylpropyl)oxy)-5-chloro-3-pyridinyl)-5-chloro-2-fluoro-N-(methylsulfonyl)benzamide]	97.4 nM		> 3000 nM		
Cc1cc(C(=O)NS(C)(=O)=O)c(F)cc1-c1cnc(O[C@H](C)c2nc3ccccc3s2)c(Cl)c1 [Example 647, 4-(6-((1R)-1-(1,3-benzothiazol-2-yl)ethoxy)-5-chloro-3-pyridinyl)-2-fluoro-5-methyl-N-(methylsulfonyl)benzamide, 4-(6-((1S)-1-(1,3-benzothiazol-2-yl)ethoxy)-5-chloro-3-pyridinyl)-2-fluoro-5-methyl-N-(methylsulfonyl)benzamide]	76 nM		> 3000 nM		
CC[C@@H](Oc1ncc(-c2cc(F)c(C(=O)NS(C)(=O)=O)cc2Cl)cc1Cl)c1ccc(F)cc1 [Example 596, 5-chloro-4-(5-chloro-6-(((1R)-1-(4-fluorophenyl)propyl)oxy)-3-pyridinyl)-2-fluoro-N-(methylsulfonyl)benzamide, 5-chloro-4-(5-chloro-6-(((1S)-1-(4-fluorophenyl)propyl)oxy)-3-pyridinyl)-2-fluoro-N-(methylsulfonyl)benzamide]	87.9 nM		> 3000 nM		
